Measurements as given in patent US20250057832A1, “USE OF A CLASS OF 1,4-DIHYDRO-NAPHTHYRIDINE DERIVATIVES IN TREATMENT OF TUMORS” (NEURODAWN PHARMACEUTICAL CO., LTD., priority 2021, published 2025).

Experiments:
[1] = test system: T98G cells; assay: Vacuolation induction in T98G cells (Example 1); format: cell-based, human; settings: for Vacuolation rate (%): 6 hours, mean±SD; for Induction of vacuolation in T98 cells: FIG. 1 and Table 1
Description: T98G cells were stably passaged twice. When the cell density reached more than 85%, the cells were digested with 0.05% trypsin-EDTA for 3 minutes, resuspended with the culture medium, and plated in a 12-well plate at a certain density, with each well system being 1 mL. The cells were cultured for 24 hours, and added with the compound solution prepared above to each well according to the grouping, so that the concentrations of the compounds in the culture system were respectively 5 μM, 10 μM, 20 μM, 40 μM, and 60 μM. An equal volume of DMSO was added as a control well.
After 6 hours of drug treatment, the plates were observed under a microscope with a 20× objective lens, and five fields of view were randomly selected for each well to take photos and record. If in the observed field of view, bright vacuoles with clear border appeared in the cell, and at least one of the following conditions was met: 1) a cell contained at least 1 vacuole with a diameter greater than 3 μm; 2) a cell contained 3 or more vacuoles with a diameter within the range of 0.5-3 μm, the cell was considered to be methuosis-positive cells.
Among them, CELL positive: the number of methuosis-positive cells; CELL normal: the number of cells with normal morphology

[2] = test system: T98G cells; assay: Cell proliferation inhibition assay, T98G, CellCounting-Lite 2.0 (Example 1); format: cell-based, human; settings: for IC50: Homo sapiens, T98G, 72 hours of drug treatment
Description: T98G cells were stably passaged twice. When the cell density reached above 85%, the cells were digested with 0.05% trypsin-EDTA for 3 minutes, resuspended, plated in a 96-well plate at the corresponding density, and cultured for 24 hours. The cells were treated with drugs at final concentrations of the culture system of 0.41 μM, 1.23 μM, 3.7 μM, 11.1 μM, 33.3 μM, and 100 μM, respectively. After 72 hours of drug treatment, cell viability was determined using CellCounting-Lite™ 2.0 kit. The plate was added with reagents at 100 µL/well according to the CellCounting-Lite™ 2.0 kit instructions, and shaken for 10 minutes. The luminescence value (LUM) as read on a multi-function plate reader, and the relative viability of the cells was calculated.
Relative viability of tumor cells V (%)=(LUM-LUMbackground)/(LUMnormal control−LUMbackground)×100%. LUMbackground was the background reading of the complete culture medium well added with the detection reagent. The half inhibitory concentration (IC50) was calculated using GraphPad Prism 8.0.1 statistical software.

[3] = test system: U87MG-Luc glioblastoma cell in situ transplantation tumor; assay: S2 combined with TMZ in U87MG-Luc glioblastoma in situ transplantation tumor model in nude mice (Example 5); settings: TMZ 3 mg/kg
Description: Before the transplantation, the U87MG-Luc cells were digested with 0.05%-trypsin-EDTA, resuspended with pre-cooled PBS to 4×10^7 cells/mL, and transferred to ice for later use. The nude mice were anesthetized with isoflurane gas, and then fixed on a stereotaxic machine in a prone position. The scalp of the nude mouse was disinfected with iodophor, and incised sagittally with a scalpel. The incision was cleaned with iodophor. The skull was exposed, and drilled with a skull drill extending 1.0 mm in front of the bregma and deviating the right side 2.0 mm. 5 μL of cell suspension (2×10^5 cells) was manually injected with a 10 μL flat-head microsyringe, with inserting the needle to a depth of 3.5 mm, withdrawing the needle 0.5 mm, and injecting for about 10 minutes. […]
On days 7, 14, and 21 after the transplantation, 200 μL of 15 mg/mL D-luciferin potassium salt solution, which was filtered and sterilized through a 0.22 μm filter, was injected intraperitoneally. […] Luorescence intensity was analyzed using Living Image software to obtain fluorescence intensity [p/s], which reflected the size of tumor tissue in the brain of experimental animals.
The survival conditions of experimental animals were monitored, and the animals' death dates were recorded timely.
Quantitative data are expressed as mean±standard error. […]

[4] = test system: human glioma cell line T98G; settings: single drug, maximum drug concentration of 20 M, 6 hours
Description: T98G cells were stably passaged twice. […] The cells were cultured for 24 hours, and added with the compound solution prepared above to each well according to the grouping, such that the compound concentrations in the culture system were 0.1 M, 1 M, 5 μM, and 20 M, respectively. An equal volume of DMSO was added as a control well.
If bright vacuoles with clear border appeared in the observed field of view, and at least one of the following conditions was met: 1) a cell contained at least one vacuole with a diameter greater than 3 μm; 2) a cell contained 3 or more vacuoles with a diameter within the range of 0.5-3 μm; the cell was considered as a methuosis-positive cell.

Question: With CCOC(=O)C1=C(C)Nc2nc3c(c(N)c2[C@@H]1c1ccccc1Cl)CC(C)(C)CC3 [(+)-S2] as the compound, how does the “Vacuolation rate (%)” value ([1]; 5 μM) read?
Answer: 1.3 ± 1.6%

Question: And the “Vacuolation rate (%)” value ([1]; 10 μM)?
Answer: 10.0 ± 4.2%

Question: What about the “Vacuolation rate (%)” value ([1]; 20 μM) of the same compound?
Answer: 69.3 ± 6.9%

Question: What about the “Induction of vacuolation in T98 cells” value [1] of the same compound?
Answer: can induce vacuolation

Question: What about the IC50 [2] of the same compound?
Answer: 5.3 µM

Question: Which results are given for CCOC(=O)C1=C(C)Nc2nc3c(c(N)c2[C@H]1c1ccccc1Cl)CC(C)(C)CC3 [(−)-S2]?
Answer: Vacuolation rate (%) ([1]; 5 μM): 1.2 ± 1.7%; Vacuolation rate (%) ([1]; 10 μM): 21.9 ± 9.0%; Vacuolation rate (%) ([1]; 20 μM): 96.47 ± 2.4%; Induction of vacuolation in T98 cells [1]: can induce vacuolation; IC50 [2]: 9.8 µM

Question: Which results are given for CCOC(=O)C1=C(C)Nc2nc3c(c(N)c2C1c1ccccc1)CCCC3 (stereo not drawn) [Compound S1]?
Answer: Rank of vacuolation-inducing activity among the derivatives [1]: weakest vacuolation-inducing activity; Vacuolation rate (%) ([1]; 5 μM): 0.0%; Vacuolation rate (%) ([1]; 10 μM): 0.3 ± 0.6%; Vacuolation rate (%) ([1]; 20 μM): 2.23 ± 0.5%; Vacuolation rate (%) ([1]; 40 μM): 10.0 ± 5.6%; Induction of vacuolation in T98 cells [1]: can induce vacuolation; Proliferation inhibitory activity on T98G (in words) ([2]; 72 hours): weak; IC50 [2]: 47.8 µM

Question: With C=CCOC(=O)C1=C(C)Nc2nc3c(c(N)c2C1c1cccc(F)c1)CC(C)(C)CC3 (stereo not drawn) [Compound S3] as the compound, how does the “Vacuolation rate (%)” value ([1]; 5 μM) read?
Answer: 1.1 ± 1.5%

Question: What about the “Vacuolation rate (%)” value ([1]; 10 μM) of the same compound?
Answer: 5.34 ± 1.2%

Question: And the “Vacuolation rate (%)” value ([1]; 20 μM)?
Answer: 9.04 ± 3.8%

Question: What about the “Vacuolation rate (%)” value ([1]; 40 μM) of the same compound?
Answer: 57.4 ± 13.9%

Question: What about the “Induction of vacuolation in T98 cells” value [1] of the same compound?
Answer: can induce vacuolation

Question: And the IC50 [2]?
Answer: 7 µM

Question: Which results are given for C#CCOC(=O)C1=C(C)Nc2nc3c(c(N)c2C1c1cccc(F)c1)CC(C)(C)CC3 (stereo not drawn) [Compound S4]?
Answer: Vacuolation rate (%) ([1]; 5 μM): 0.6 ± 1.4%; Vacuolation rate (%) ([1]; 10 μM): 5.0 ± 1.3%; Vacuolation rate (%) ([1]; 20 μM): 10.43 ± 1.0%; Vacuolation rate (%) ([1]; 40 μM): 76.9 ± 12.1%; Induction of vacuolation in T98 cells [1]: can induce vacuolation; IC50 [2]: 12.7 µM

Question: With COCCOC(=O)C1=C(C)Nc2nc3c(c(N)c2C1c1ccccc1Cl)CC(C)(C)CC3 (stereo not drawn) [Compound S5] as the compound, how does the “Vacuolation rate (%)” value ([1]; 5 μM) read?
Answer: 1.4 ± 1.4%

Question: And the “Vacuolation rate (%)” value ([1]; 10 μM)?
Answer: 10.7 ± 0.90%

Question: And the “Vacuolation rate (%)” value ([1]; 20 μM)?
Answer: 35.1 ± 1.3%

Question: What about the “Induction of vacuolation in T98 cells” value [1] of the same compound?
Answer: can induce vacuolation

Question: And the IC50 [2]?
Answer: 4.5 µM

Question: How did the “Vacuolation rate (%)” value ([1]; 5 μM) turn out when CC1=C(C(=O)OC(C)C)C(c2cccc(F)c2)c2c(nc3c(c2N)CC(C)(C)CC3)N1 (stereo not drawn) [Compound S6] was run?
Answer: 0.00%

Question: What about the “Vacuolation rate (%)” value ([1]; 10 μM) of the same compound?
Answer: 10.5 ± 1.6%

Question: What about the “Vacuolation rate (%)” value ([1]; 20 μM) of the same compound?
Answer: 15.3 ± 1.3%

Question: And the “Vacuolation rate (%)” value ([1]; 40 μM)?
Answer: 52.3 ± 2.5%

Question: What about the “Induction of vacuolation in T98 cells” value [1] of the same compound?
Answer: can induce vacuolation

Question: What about the IC50 [2] of the same compound?
Answer: 20.5 µM

Question: With Cn1nnc2c(C(N)=O)ncn2c1=O [TMZ, Temozolomide] as the compound, how does the “Median survival period” value ([3]; vehicle 30) read?
Answer: 33.5 days

Question: And the “Overall survival period” value ([3]; vehicle 33)?
Answer: 35 days

Question: How did the “Induction of vacuolated cell phenotype” value [4] turn out when COc1ccc([C@@H]2Sc3ccccc3N(CCN(C)C)C(=O)[C@@H]2OC(C)=O)cc1 [diltiazem] was run?
Answer: None of calcium channel inhibitors nifedipine, verapamil, diltiazem, and flunarizine with a maximum drug concentration of 20 M could induce a vacuolated cell phenotype

Question: For Fc1ccc(C(c2ccc(F)cc2)N2CCN(C/C=C/c3ccccc3)CC2)cc1 [flunarizine], which “Induction of vacuolated cell phenotype” value [4] is on record?
Answer: None of calcium channel inhibitors nifedipine, verapamil, diltiazem, and flunarizine with a maximum drug concentration of 20 M could induce a vacuolated cell phenotype
